What was measured:
in vivo [1] = details: rat, plasma, po, 10 mg/kg
in vivo [2] = details: rat, brain, po, 10 mg/kg
in vivo [3] = details: rat, cerebrospinal fluid, po, 10 mg/kg

## CC1(C)CN2CCNCc3ccc(F)c1c32
In vivo [1]
  concentration at 1 h: 608 ng/mL
In vivo [2]
  concentration at 1 h: 8860 ng/g
In vivo [3]
  concentration at 1 h: 170 ng/mL
